According to PubChem BioAssay (NCI):
Several values for one entry are separate records, joined by “and”; a condition that tells them apart may be missing. Equal entries are not always repeated.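 Values below derive from 48-hour exposures of cells grown in 96-well plates, with endpoints linearly interpolated between the two concentrations bracketing the appropriate inhibition level. GI50 = concentration required for 50% inhibition of growth. TGI: concentration producing complete growth inhibition.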 Where a SMILES comes first, the peptide text is derived from it. [ ]: non-standard residue; d: D form. The star is where a group is joined. ξ: configuration not given here. X16 = COC1=CC(=O)N(C(=O)C(O*)C(C)C)C1Cc1ccccc1; ξNMe2Val = CC(C)C(C(=O)*)N(C)C; NMeV = CN[CH](C(=O)O)C(C)C

Columns and labels:
Assay in all cases: DTP human tumour cell line panel, 48 h
ACHN renal = test system: ACHN renal
M19-MEL melanoma = test system: M19-MEL melanoma
U251 CNS = test system: U251 CNS
OVCAR-3 ovarian = test system: OVCAR-3 ovarian
DMS 273 small cell lung = test system: DMS 273 small cell lung
SK-OV-3 ovarian = test system: SK-OV-3 ovarian
A549 NSCLC = test system: A549 NSCLC
KM12 colon = test system: KM12 colon
BT-549 breast = test system: BT-549 breast
MDA-MB-435 = test system: MDA-MB-435

Compound | TGI (ACHN renal) [µM] | TGI (M19-MEL melanoma) [µM] | TGI (U251 CNS) [µM] | TGI (OVCAR-3 ovarian) | TGI (DMS 273 small cell lung) [µM] | TGI (SK-OV-3 ovarian) [µM] | TGI (A549 NSCLC) [µM] | TGI (KM12 colon) [µM] | GI50 (U251 CNS) [µM] | GI50 (OVCAR-3 ovarian) [µM] | GI50 (DMS 273 small cell lung) [µM] | GI50 (SK-OV-3 ovarian) [µM] | GI50 (A549 NSCLC) [µM] | GI50 (KM12 colon) [µM] | TGI (BT-549 breast) [µM] | TGI (MDA-MB-435) [µM] | GI50 (M19-MEL melanoma) [µM]
O=C(CCN1CCCCC1CCO)Nc1ccc2c(c1)C(=O)c1ccc(NC(=O)CCN3CCCCC3CCO)cc1C2=O (stereo not given) | 24.9 | 74.9 | 14.9 | 9.03 µM | 12.5 | 22.6 | 41.1 | 9.87 |  |  |  |  |  |  |  |  | 
Cc1ccc(-c2cc(-c3ccco3)nc(N)n2)o1 | > 100 |  |  | > 100 µM | > 100 |  | > 100 | > 100 |  |  |  |  |  |  |  |  | 
C=CCN1C(=O)CS/C1=N\NC(=O)c1c(C)nc2sccn12 | > 100 | > 100 | > 100 | > 100 µM | > 100 | > 100 | > 100 | > 100 |  |  |  |  |  |  |  |  | 
O=C(NCCNCCO)N/N=C/c1cccc([N+](=O)[O-])c1 | > 100 | > 100 | > 100 | > 100 µM | > 100 | > 100 | > 100 | > 100 |  |  |  |  |  |  |  |  | 
C=C1CC2CC[C@@]34C[C@@H]5O[C@@H]6C(O[C@H]7CC[C@H](CC(=O)OC8[C@@H](C)C9OC%10C[C@]%11(C[C@@H]%12O[C@@]%13(C[C@@H](C)[C@@H]%12O%11)C[C@H](C)[C@@H]%11OC%12CC(C(O)CO)OC%12C[C@@H]%11O%13)OC%10CC9O[C@H]8C[C@H]8O[C@@H](CC[C@@H]1O2)C[C@@H](C)C8=C)O[C@@H]7[C@@H]6O3)C5O4 (stereo not given in full) |  |  | 0.000191 | 0.00108 µM and < 0.000148 µM | < 0.000148 |  | > 1.48 |  | < 0.000148 | < 0.000148 | < 0.000148 | < 0.000148 | < 0.000148 | < 0.000148 |  |  | 
COC1/C=C\C=C(/C)C(=O)NC2=CC(=O)C(NCCCl)=C(CC(C)CC(OC)C(O)C(C)/C=C(/C)C1OC(N)=O)C2=O (stereo not given) | 10.2 | 1.57 | 4.14 | 8.4 µM | 1.1 | 2.11 | 14.3 | 2.01 |  |  |  |  |  |  | 2.85 | 3.72 | 
CC1=C/C(=C(\c2ccc(N(C)C)cc2)c2ccc([N+](C)(C)C)cc2)C=CC1=[N+](C)C | 43.8 | 20.3 | 17.6 | 24.4 µM | 18.2 | 31.6 | 28.9 | 16.1 |  |  |  |  |  |  |  |  | 
CC(C)(C)C1CC[C@H]2c3c([nH]c4ccc(Br)cc34)[C@H]3C(=O)N(c4ccccc4)C(=O)[C@H]3[C@H]2C1 (stereo not given in full) | > 100 | 49.8 | 36.5 | > 100 µM | 22.4 | 40.8 | > 100 | > 100 |  |  |  |  |  |  |  |  | 
c1ccc2[nH]c(-c3nc4ccccc4o3)nc2c1 | > 100 | > 100 | > 100 | > 100 µM | > 100 | > 100 | > 100 | > 100 |  |  |  |  |  |  |  |  | 
C=C(NC(=O)C(=C)NC(=O)c1csc(C2=NC3c4csc(n4)C4NC(=O)c5csc(n5)C(C(C)(O)C(C)O)NC(=O)C5CSC(=N5)/C(=C/C)NC(=O)C(C(C)O)NC(=O)c5csc(n5)C3(CC2)NC(=O)C(C)NC(=O)C(=C)NC(=O)C(=C)NC(=O)C(C(C)C)NC2C=Cc3c(C(C)O)cc(nc3C2O)C(=O)OC4C)n1)C(N)=O (stereo not given) | > 61.2 |  | > 40.2 | > 100 µM |  | > 63.4 | > 48.5 | > 100 |  |  |  |  |  |  | 7.88 | > 52.8 | 
CCOC(=O)C(NCc1ccccc1)(NC(=O)c1ccccc1)C(F)(F)F (stereo not given) | > 100 |  | > 100 | > 100 µM |  | > 100 | > 100 | > 100 |  |  |  |  |  |  | > 100 | > 100 | 
COC1=CC(=O)N(C(=O)C(OC(=O)C2CCCN2C(=O)C2CCCN2C(=O)C(C(C)C)N(C)C(=O)C(NC(=O)C(C(C)C)N(C)C)C(C)C)C(C)C)C1Cc1ccccc1 (stereo not given) (ξNMe2Val-V[NMeV]PP-X16; configuration not given here) |  | > 4 | 0.0109 | 0.00383 µM and < 0.0004 µM | < 0.0004 |  | > 4 | > 4 | < 0.0004 | < 0.0004 | < 0.0004 | 0.0042 | 0.00715 | < 0.0004 |  | 0.000576 | < 0.0004
CN(C)[C@@H]1C(=O)C(C(N)=O)=C(O)[C@@]2(O)C(=O)C3=C(O)c4c(O)cccc4C[C@H]3C[C@@H]12 | 14.3 | 3.12 | 4.68 |  |  | 3.96 | 5.52 | 6.54 |  |  |  |  |  |  |  |  | 
CS(=O)(=O)NNS(=O)(=O)c1ccc(Br)cc1 | > 100 | > 100 | > 100 |  | > 100 | > 100 | > 100 |  |  |  |  |  |  |  |  |  | 
